Laboratory results as given in ChEMBL document CHEMBL3751765, “Efavirenz a nonnucleoside reverse transcriptase inhibitor of first-generation: Approaches based on its medicinal chemistry” (Eur J Med Chem, 2016).

Assays:
[1] = Half life in human administered as single dose; type: ADME, organism-based; conditions: in vivo
[2] = Half life in human administered as multiple doses; type: ADME, organism-based; conditions: in vivo
[3] = Tmax in human plasma after the first dose of drug; type: ADME, organism-based
[4] = target: Human immunodeficiency virus type 1 reverse transcriptase (Human immunodeficiency virus 1, UniProt Q72547); assay: Inhibition of HIV1 reverse transcriptase
[5] = target: Human immunodeficiency virus type 1 reverse transcriptase (Human immunodeficiency virus 1) (UniProt Q72547)

**Q.** With `O=C1Nc2ccc(Cl)cc2[C@@](C#CC2CC2)(C(F)(F)F)O1` [EFAVIRENZ] as the molecule, how does the half-life [1] read?
**A.** 52 h

**Q.** What about the half-life [2] of the same molecule?
**A.** 40 h

**Q.** And the Tmax [3]?
**A.** 5 h

**Q.** For `CCCCC[C@]12C[C@@]1(C(=O)OCC)C(=O)Nc1ccc(Br)cc12`, which IC50 [4] is on record?
**A.** 1 nM

**Q.** With `CC(C)=CCO[C@]1(C(F)(F)F)OC(=O)Nc2ccc(Cl)cc21` as the molecule, how does the IC90 [5] read?
**A.** 2.68 nM

**Q.** With `C#CC1(C2CC2)c2cc(Cl)ccc2NC(=O)N1C` (stereo not drawn) as the molecule, how does the IC50 [4] read?
**A.** 6 nM

**Q.** For `CCCO[C@@](C#CC1CC1)(c1cc(CC)c(C)[nH]c1=O)C(F)(F)F`, which IC90 [5] is on record?
**A.** 32 nM

**Q.** Which IC90 [5] does the source give for `O=C1Nc2cccc(F)c2[C@@](C#CC2CC2)(C(F)(F)F)O1` here?
**A.** 4.35 nM

**Q.** Which IC90 [5] does the source give for `O=C1Nc2ccc(Cl)cc2[C@@](C#CC2CC2)(C(F)(F)F)N1` here?
**A.** 2.7 nM

**Q.** Which IC90 [5] does the source give for `O=C1Nc2ccc(Cl)cc2[C@@](C#Cc2ccco2)(C(F)(F)F)O1` here?
**A.** 3.8 nM

**Q.** With `CN1C(=O)C(O)(C#CC2CC2)c2ccccc21` (stereo not drawn) as the molecule, how does the IC90 [5] read?
**A.** 40 nM

**Q.** Which IC50 [4] does the source give for `O=S1(c2ccccc2)=NC(=S)Nc2ccccc21` (stereo not drawn) here?
**A.** 950 nM

**Q.** Which IC90 [5] does the source give for `C=CCO[C@]1(C(F)(F)F)OC(=O)Nc2ccc(Cl)cc21` here?
**A.** 3.9 nM

**Q.** For `COc1ccc2c(c1)N(C(=O)OC(C)C)[C@@H](CSC)C(=O)N2`, which IC50 [4] is on record?
**A.** 2 nM

**Q.** With `O=C1Nc2ccc([N+](=O)[O-])cc2[C@@](C#CC2CC2)(C(F)(F)F)O1` as the molecule, how does the IC90 [5] read?
**A.** 0.83 nM

**Q.** For `CN(C)c1ccc2c(c1)[C@@](C#CC1CC1)(C(F)(F)F)OC(=O)N2`, which IC90 [5] is on record?
**A.** 8.33 nM

**Q.** Which IC90 [5] does the source give for `CC(C)C#C[C@]1(C(F)(F)F)NC(=O)Nc2ccc(Cl)cc21` here?
**A.** 3 nM

**Q.** With `Nc1ccc2c(c1)[C@@](C#CC1CC1)(C(F)(F)F)OC(=O)N2` as the molecule, how does the IC90 [5] read?
**A.** 20.6 nM

**Q.** Which IC90 [5] does the source give for `O=C1Nc2ccc(-c3ccccc3)cc2[C@@](C#CC2CC2)(C(F)(F)F)O1` here?
**A.** 279 nM

**Q.** For `CNc1ccc2c(c1)[C@@](C#CC1CC1)(C(F)(F)F)OC(=O)N2`, which IC90 [5] is on record?
**A.** 9.02 nM

**Q.** For `CCOC1(c2ccccc2)c2cc(Cl)ccc2NC(=O)N1C` (stereo not drawn), which IC50 [4] is on record?
**A.** 56 nM

**Q.** For `C=CCC[C@]12C[C@@]1(C(=O)OCC)C(=O)Nc1ccc(Br)cc12`, which IC50 [4] is on record?
**A.** 1 nM

**Q.** Which IC90 [5] does the source give for `O=C1Nc2ccccc2[C@@](C#CC2CC2)(C(F)(F)F)O1` here?
**A.** 10.3 nM

**Q.** With `CC(C)CCO[C@]1(C(F)(F)F)OC(=O)Nc2ccc(Cl)cc21` as the molecule, how does the IC90 [5] read?
**A.** 10.1 nM

**Q.** For `O=C1Nc2ccc(Cl)cc2[C@@](C#Cc2ccccn2)(C(F)(F)F)O1`, which IC90 [5] is on record?
**A.** 5.39 nM

**Q.** With `C[C@@H]1O[C@](/C=C/C2CC2)(C(F)(F)F)c2cc(Cl)ccc2NC1=O` as the molecule, how does the IC50 [4] read?
**A.** 46 nM

**Q.** Which IC90 [5] does the source give for `CC(=O)Nc1ccc2c(c1)[C@@](C#CC1CC1)(C(F)(F)F)OC(=O)N2` here?
**A.** 296 nM

**Q.** For `CCOC(=O)[C@@H]1C[C@@]12C(=O)Nc1ccc(Cl)cc12`, which IC50 [4] is on record?
**A.** 59 nM

**Q.** Which IC90 [5] does the source give for `CCCCO[C@]1(C(F)(F)F)OC(=O)Nc2ccc(Cl)cc21` here?
**A.** 10.2 nM

**Q.** With `CCO[C@]1(C(F)(F)F)OC(=O)Nc2ccc(Cl)cc21` as the molecule, how does the IC90 [5] read?
**A.** 18.3 nM

**Q.** Which IC90 [5] does the source give for `O=C1Nc2ccc(F)cc2[C@@](C#CC2CC2)(C(F)(F)F)O1` here?
**A.** 7.35 nM

**Q.** For `CC[C@H]1C(=O)Nc2ccc(F)cc2N1C(=O)OC(C)C` [OPAVIRALINE], which IC90 [5] is on record?
**A.** 4.8 nM

**Q.** What about the IC50 [4] of the same molecule?
**A.** 45 nM

**Q.** For `O=C1Nc2ccc(OC(F)(F)F)cc2[C@@](C#CC2CC2)(C(F)(F)F)O1`, which IC90 [5] is on record?
**A.** 18.9 nM

**Q.** With `CC(C)=CCN1C(C)C(=O)Nc2ccc(Cl)cc2S1(=O)=O` (stereo not drawn) as the molecule, how does the IC50 [4] read?
**A.** 800 nM

**Q.** Which IC90 [5] does the source give for `COc1ccc2c(c1)[C@@](C#CC1CC1)(C(F)(F)F)OC(=O)N2` here?
**A.** 2 nM

**Q.** Which IC90 [5] does the source give for `Cc1ccc2c(c1)[C@@](C#CC1CC1)(C(F)(F)F)OC(=O)N2` here?
**A.** 7.11 nM

**Q.** For `Cc1ccc2c(c1)C(O)(C#CC1CC1)C(=O)N2C` (stereo not drawn), which IC90 [5] is on record?
**A.** 6 nM
